One assay concerns RSV A2 strain. In words: In vitro CPE (CytoPathic Effect) inhibition effect evaluation test, RSV type A. The class given is cell-based. As to conditions: human respiratory syncytial virus. The method in brief:
(§1)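 HEp-2 cells (2.4×10^5 cells/mL, 2% FBS E-MEM) were infected with RSV alongside 3-fold compound dilutions and incubated at 37 °C, 4 days for A2 and 5 days for B Wash/18537. Viable cells quantified by CellTiter-Glo 2.0 luminescence; EC50 by nonlinear regression as 50% CPE inhibition.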
Background: Damage to the host cells serves as the signal in cytopathic effect assays.

The test system of assay [1] is RSV B (Wash/18537 strain). In words: In vitro CPE (CytoPathic Effect) inhibition effect evaluation test, RSV type B. In kind it is cell-based. The conditions noted are these: human respiratory syncytial virus. The method in brief: as §1
[2] abbreviates: inhibitory effect against RSV type A (RSV A2 strain), HEp-2 cells, CPE inhibition, read-out: EC50.
The mark [3] stands for this setting: inhibitory effect against RSV type B, CPE inhibition, read-out: EC50.

pEC50: −log10 of the molar value. Read-outs that look alike come from different tables or passages of the source. Bounds are passed on as bounds.

On to `CC(F)(F)c1nc(N2CC3(CCOCC3)c3cc(O[C@H]4CC[C@H](NCC(F)(F)F)CC4)ccc32)ncc1C(=O)NC1(C(=O)O)C2CC3CC(C2)CC1C3` (some centres unmarked) [Compound I-552], for which the pEC50 (in the assay on RSV A2 strain (setting [2]); in assay [1] (setting [3])) was over 8.00 in each case.

In the case of `CC(F)(F)c1nc(N2CC3(CCOCC3)c3cc(O[C@H]4CC[C@H](Nc5ncc(F)cn5)CC4)ccc32)ncc1C(=O)NC1(C(=O)O)C2CC3CC(C2)CC1C3` (some centres unmarked) [Compound I-553], the results for the pEC50 (in the assay on RSV A2 strain (setting [2]); in assay [1] (setting [3])) were over 8.00 and 7.00 to 8.00, respectively.

As to `CC(F)(F)c1nc(N2CC3(CCOCC3)c3cc(O[C@H]4CC[C@H](N5CC(F)(F)C5)CC4)ccc32)ncc1C(=O)N[C@]1(C(=O)O)[C@@H]2CC3C[C@H]1C[C@@](F)(C3)C2` [Compound I-554], the negative logarithm of the EC50 (pEC50) (in the assay on RSV A2 strain (setting [2]); in assay [1] (setting [3])) was over 8.00 throughout.

Regarding `CC(F)(F)c1nc(N2CC3(CCCCC3)c3cc(O[C@H]4CC[C@H](N5CC(F)(F)C5)CC4)ncc32)ncc1C(=O)NC1(C(=O)O)C2CC3CC(C2)CC1C3` (some centres unmarked) [Compound I-555], the pEC50 (in general, −log10 of the EC50, conventionally taken in molar units) in the assay with RSV A2 strain (setting [2]) is over 8.00; in assay [1] (setting [3]), 7.00 to 8.00.

Regarding `CC(F)(F)c1nc(N2CC3(CCCCC3)c3cc(O[C@H]4CC[C@H](N5CC(F)(F)C5)CC4)ncc32)ncc1C(=O)N[C@]1(C(=O)O)[C@@H]2CC3C[C@H]1C[C@@](F)(C3)C2` [Compound I-556], the results for the pEC50 (in the assay with RSV A2 strain (setting [2]); in assay [1] (setting [3])) were over 8.00 and 7.00 to 8.00, respectively.

For the molecule `CC(F)(F)c1nc(N2CC3(CCCCC3)c3cc(OC4CCN(c5ncc(F)cn5)CC4)ncc32)ncc1C(=O)NC1(C(=O)O)C2CC3CC(C2)CC1C3` (centres unmarked) [Compound I-557], the pEC50 (in the assay on RSV A2 strain (setting [2]); in assay [1] (setting [3])) was over 8.00 each time.

Consider `O=C(NC1(C(=O)O)C2CC3CC(C2)CC1C3)c1cnc(N2CC3(CCCCC3)c3cc(OC4CCN(c5ncc(F)cn5)CC4)ncc32)nc1C(F)(F)F` (centres unmarked) [Compound I-558], for which the pEC50 (in the assay with RSV A2 strain (setting [2]); in assay [1] (setting [3])) was over 8.00 each time.

In the case of `CC(F)(F)c1nc(N2CC3(CCOCC3)c3cc(OC4CCN(CC(F)F)CC4)ccc32)ncc1C(=O)NC1(C(=O)O)C2CC3CC(C2)CC1C3` (centres unmarked) [Compound I-559], the pEC50 (with RSV A2 strain (setting [2]); in assay [1] (setting [3])) was over 8.00 throughout.

Consider `CC(F)(F)c1nc(N2CC3(CCOCC3)c3cc(O[C@@H]4CCN(c5ncc(F)cn5)C4)ccc32)ncc1C(=O)NC1(C(=O)O)C2CC3CC(C2)CC1C3` (some centres unmarked) [Compound I-560], for which the pEC50 (in the assay with RSV A2 strain (setting [2]); in assay [1] (setting [3])) was over 8.00 in each case.

On to `CC(F)(F)c1nc(N2CC3(CCOCC3)c3cc(O[C@@H]4CCN(CC(F)(F)F)C4)ccc32)ncc1C(=O)NC1(C(=O)O)C2CC3CC(C2)CC1C3` (some centres unmarked) [Compound I-561], for which the pEC50 (with RSV A2 strain (setting [2]); in assay [1] (setting [3])) was over 8.00 throughout.

`CC(F)(F)c1nc(N2CC3(CCOCC3)c3cc(O[C@H]4CC[C@H](c5ncc(F)cn5)CC4)ccc32)ncc1C(=O)NC1(C(=O)O)C2CC3CC(C2)CC1C3` (some centres unmarked) [Compound I-562]: the pEC50 (with RSV A2 strain (setting [2]); in assay [1] (setting [3])) was over 8.00 each time.

In the case of `CC(F)(F)c1nc(N2CC3(CCCCC3)c3cc(O[C@H]4CC[C@H](n5ccnn5)CC4)ccc32)ncc1C(=O)NC1(C(=O)O)C2CC3CC(C2)CC1C3` (some centres unmarked) [Compound I-563], the pEC50 (with RSV A2 strain (setting [2]); in assay [1] (setting [3])) was over 8.00 in each case.

`CC(F)(F)c1nc(N2CC3(CCOCC3)c3cc(OC4CCN(C5CSC5)CC4)ccc32)ncc1C(=O)NC1(C(=O)O)C2CC3CC(C2)CC1C3` (centres unmarked) [Compound I-564]: the pEC50 (in the assay with RSV A2 strain (setting [2]); in assay [1] (setting [3])) was over 8.00 in each case.

With `CC(F)(F)c1nc(N2CC3(CCCC3)c3cc(OC4CCN(CC(F)(F)F)CC4)ccc32)ncc1C(=O)NC1(C(=O)O)C2CC3CC(C2)CC1C3` (centres unmarked) [Compound I-565], the pEC50 (with RSV A2 strain (setting [2]); in assay [1] (setting [3])) was over 8.00 each time.

For the molecule `O=C(NC1(C(=O)O)C2CC3CC(C2)CC1C3)c1cnc(N2CC3(CCCC3)c3cc(O[C@@H]4CCN(CC(F)(F)F)C4)ccc32)nc1C(F)(F)F` (some centres unmarked) [Compound I-566], the pEC50 (with RSV A2 strain (setting [2]); in assay [1] (setting [3])) was over 8.00 in each case.

For `COC[C@H](C)n1cc(-c2ncc(C(=O)NC3(C(=O)O)C4CC5CC(C4)CC3C5)c(C(C)(F)F)n2)c2ccc(O[C@H]3CC[C@H](N4CC(F)(F)C4)CC3)cc21` (some centres unmarked) [Compound I-567], the pEC50 (in the assay with RSV A2 strain (setting [2]); in assay [1] (setting [3])) was over 8.00 in each case.

Turning to `COC[C@@H](C)n1cc(-c2ncc(C(=O)NC3(C(=O)O)C4CC5CC(C4)CC3C5)c(C(C)(F)F)n2)c2ccc(O[C@H]3CC[C@H](N4CC(F)(F)C4)CC3)cc21` (some centres unmarked) [Compound I-569], the pEC50 (in the assay with RSV A2 strain (setting [2]); in assay [1] (setting [3])) was over 8.00 throughout.

For `CCC(CC)n1cc(-c2ncc(C(=O)NC3(C(=O)O)C4CC5CC(C4)CC3C5)c(C(C)(F)F)n2)c2ccc(O[C@H]3CC[C@H](N4CC(F)(F)C4)CC3)cc21` (some centres unmarked) [Compound I-570], the pEC50 with RSV A2 strain (HEp-2, 96 h, read-out: EC50, inhibitory effect against RSV type A (CPE inhibition)) was 9.15; in assay [1] (HEp-2, 120 h, HEp-2 cells, RSV B (Wash/18537 strain), 5 days, CellTiter-Glo, read-out: EC50, inhibitory effect against RSV type B (CPE inhibition)) it was 8.68.

As for `CC(F)(F)c1nc(-c2cn(C3CCOCC3)c3cc(O[C@H]4CC[C@H](N5CC(F)(F)C5)CC4)ccc23)ncc1C(=O)NC1(C(=O)O)C2CC3CC(C2)CC1C3` (some centres unmarked) [Compound I-572], the pEC50 (with RSV A2 strain (setting [2]); in assay [1] (setting [3])) was over 8.00 in each case.

With `O=C(NC1(C(=O)O)C2CC3CC(C2)CC1C3)c1cnc(-c2cn(C3CCC(F)(F)CC3)c3cc(-n4ncc5c4CCN(CC(F)(F)F)C5)ccc23)nc1C(F)(F)F` (centres unmarked) [Compound I-573], the pEC50 (in the assay with RSV A2 strain (setting [2]); in assay [1] (setting [3])) was over 8.00 each time.

Turning to `CCC(CC)n1cc(-c2ccc(C(=O)NC3(C(=O)O)C4CC5CC(C4)CC3C5)c(C(F)(F)F)n2)c2ccc(O[C@H]3CC[C@H](N4CC(F)(F)C4)CC3)cc21` (some centres unmarked) [Compound I-575], the pEC50 (with RSV A2 strain (setting [2]); in assay [1] (setting [3])) was over 8.00 in each case.

`COC[C@@H](C)n1cc(-c2ncc(C(=O)NC3(C(=O)O)C4CC5CC(C4)CC3C5)c(C(F)(F)F)n2)c2ccc(OC3CCN(CC(C)(F)F)CC3)cc21` (some centres unmarked) [Compound I-576]: the pEC50 (in the assay on RSV A2 strain (setting [2]); in assay [1] (setting [3])) was over 8.00 each time.

As for `COC[C@H](C)n1cc(-c2ccc(C(=O)NC3(C(=O)O)C4CC5CC(C4)CC3C5)c(C(F)(F)F)n2)c2ccc(O[C@H]3CC[C@H](N4CC(F)(F)C4)CC3)cc21` (some centres unmarked) [Compound I-577], the pEC50 (in the assay with RSV A2 strain (setting [2]); in assay [1] (setting [3])) was over 8.00 throughout.

As to `CC(F)(F)CN1CCC(Oc2ccc3c(-c4ncc(C(=O)NC5(C(=O)O)C6CC7CC(C6)CC5C7)c(C(F)(F)F)n4)cn(C4CCOCC4)c3c2)CC1` (centres unmarked) [Compound I-578], the pEC50 (in the assay with RSV A2 strain (setting [2]); in assay [1] (setting [3])) was over 8.00 throughout.

As to `CC(F)(F)c1nc(-c2cn(C3CCC4(CC3)COC4)c3cc(O[C@H]4CC[C@H](N5CC(F)(F)C5)CC4)ccc23)ncc1C(=O)NC1(C(=O)O)C2CC3CC(C2)CC1C3` (some centres unmarked) [Compound I-580], the negative-log EC50 (pEC50) (in the assay on RSV A2 strain (setting [2]); in assay [1] (setting [3])) was over 8.00 each time.

On to `COC[C@@H](C)n1cc(-c2ccc(C(=O)NC3(C(=O)O)C4CC5CC(C4)CC3C5)c(C(F)(F)F)n2)c2ccc(O[C@H]3CC[C@H](N4CC(F)(F)C4)CC3)cc21` (some centres unmarked) [Compound I-581], for which the pEC50 (in the assay with RSV A2 strain (setting [2]); in assay [1] (setting [3])) was over 8.00 each time.

With `O=C(NC1(C(=O)O)C2CC3CC(C2)CC1C3)c1ccc(-c2cn(C3CCC4(CC3)COC4)c3cc(O[C@H]4CC[C@H](N5CC(F)(F)C5)CC4)ccc23)nc1C(F)(F)F` (some centres unmarked) [Compound I-582], the pEC50 (with RSV A2 strain (setting [2]); in assay [1] (setting [3])) was over 8.00 throughout.

Take `CC(F)(F)CN1CCC(Oc2ccc3c(-c4ncc(C(=O)NC5(C(=O)O)C6CC7CC(C6)CC5C7)c(C(C)(F)F)n4)cn(C4CCC(F)(F)CC4)c3c2)CC1` (centres unmarked) [Compound I-583]: the pEC50 (with RSV A2 strain (setting [2]); in assay [1] (setting [3])) was over 8.00 throughout.

The record behind these values is patent US12528790B2, “Amide derivative having antiviral activity” (Shionogi & Co., Ltd., priority 2020, dated 2026).
